Laboratory results published in PubChem BioAssay AID2060505 (Molecular Pharmacology Branch, DTP, NCI, 2025).

Test system: 633275-114-R-J1-PDC complex spheroids, viability
Test: Anticancer human tumor 633275-114-R-J1-PDC patient-derived endometrial adenocarcinoma cell line growth inhibition [GQUAD]
Details: for IC50: curve of first compound; for viability, T/C: stronger effect = lower value
How it was run: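 Multi-cell-type spheroids of tumor cells with HUVEC and mesenchymal stem cells, treated with drug combinations. Concentrations descend in half-log steps from near clinical Cmax, or from 10 microM where Cmax is unknown; viability read-out.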

[1] = second compound 0.0316 µM, first compound 0.0316 µM
[2] = second compound 0.0316 µM, first compound 0.1 µM
[3] = second compound 0.0316 µM, first compound 0.316 µM
[4] = second compound 0.0316 µM, first compound 1 µM
[5] = second compound 0.0316 µM, first compound 3.16 µM
[6] = second compound 0.0316 µM, first compound 10 µM
[7] = second compound 0.1 µM, first compound 0.0316 µM
[8] = second compound 0.1 µM, first compound 0.1 µM
[9] = second compound 0.1 µM, first compound 0.316 µM
[10] = second compound 0.1 µM, first compound 1 µM
[11] = second compound 0.1 µM, first compound 3.16 µM
[12] = second compound 0.1 µM, first compound 10 µM
[13] = second compound 0.316 µM, first compound 0.0316 µM
[14] = second compound 0.316 µM, first compound 0.1 µM
[15] = second compound 0.316 µM, first compound 0.316 µM
[16] = second compound 0.316 µM, first compound 1 µM
[17] = second compound 0.316 µM, first compound 3.16 µM
[18] = second compound 0.316 µM, first compound 10 µM
[19] = second compound 1 µM, first compound 0.0316 µM
[20] = second compound 1 µM, first compound 0.1 µM
[21] = second compound 1 µM, first compound 0.316 µM
[22] = second compound 1 µM, first compound 1 µM
[23] = second compound 1 µM, first compound 3.16 µM
[24] = second compound 1 µM, first compound 10 µM
[25] = second compound 3.16 µM, first compound 0.0316 µM
[26] = second compound 3.16 µM, first compound 0.1 µM
[27] = second compound 3.16 µM, first compound 0.316 µM
[28] = second compound 3.16 µM, first compound 1 µM
[29] = second compound 3.16 µM, first compound 3.16 µM
[30] = second compound 3.16 µM, first compound 10 µM
[31] = second compound 10 µM, first compound 0.0316 µM
[32] = second compound 10 µM, first compound 0.1 µM
[33] = second compound 10 µM, first compound 0.316 µM
[34] = second compound 10 µM, first compound 1 µM
[35] = second compound 10 µM, first compound 3.16 µM
[36] = second compound 10 µM, first compound 10 µM
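Also: spheroids exposed to the agents for seven days.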
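For viability, T/C in this document: percent of DMSO vehicle control viability which is 100%.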

Q: How did the IC50 (second compound 0.0316 µM) turn out when `O=c1[nH]cc(F)c(=O)[nH]1` + CN(C)c1ccc(Nc2c3ccc(NC(=O)CCN4CCCC4)cc3nc3cc(NC(=O)CCN4CCCC4)ccc23)cc1 was run?
A: > 10000 nM

Q: What about the IC50 (second compound 0.1 µM) of the same compound?
A: > 10000 nM

Q: What about the IC50 (second compound 0.316 µM) of the same compound?
A: > 10000 nM

Q: What about the IC50 (second compound 1 µM) of the same compound?
A: > 10000 nM

Q: And the IC50 (second compound 3.16 µM)?
A: > 10000 nM

Q: And the IC50 (second compound 10 µM)?
A: < 31.6 nM

Q: And the viability, T/C [1]?
A: 112%

Q: And the viability, T/C [2]?
A: 96%

Q: And the viability, T/C [3]?
A: 96.9%

Q: What about the viability, T/C [4] of the same compound?
A: 88.1%

Q: And the viability, T/C [5]?
A: 88.5%

Q: What about the viability, T/C [6] of the same compound?
A: 66%

Q: And the viability, T/C [7]?
A: 97.6%

Q: And the viability, T/C [8]?
A: 98.8%

Q: And the viability, T/C [9]?
A: 91.4%

Q: What about the viability, T/C [10] of the same compound?
A: 96.6%

Q: What about the viability, T/C [11] of the same compound?
A: 88.4%

Q: What about the viability, T/C [12] of the same compound?
A: 76.5%

Q: What about the viability, T/C [13] of the same compound?
A: 86.9%

Q: And the viability, T/C [14]?
A: 90.1%

Q: And the viability, T/C [15]?
A: 97.3%

Q: And the viability, T/C [16]?
A: 100%

Q: And the viability, T/C [17]?
A: 86.2%

Q: What about the viability, T/C [18] of the same compound?
A: 66.2%

Q: What about the viability, T/C [19] of the same compound?
A: 79.8%

Q: And the viability, T/C [20]?
A: 91.8%

Q: And the viability, T/C [21]?
A: 98.9%

Q: And the viability, T/C [22]?
A: 99%

Q: And the viability, T/C [23]?
A: 84.9%

Q: What about the viability, T/C [24] of the same compound?
A: 64.3%

Q: And the viability, T/C [25]?
A: 83.2%

Q: What about the viability, T/C [26] of the same compound?
A: 85.9%

Q: What about the viability, T/C [27] of the same compound?
A: 85.2%

Q: What about the viability, T/C [28] of the same compound?
A: 74%

Q: What about the viability, T/C [29] of the same compound?
A: 77.9%

Q: What about the viability, T/C [30] of the same compound?
A: 56.8%

Q: And the viability, T/C [31]?
A: 36%

Q: And the viability, T/C [32]?
A: 38.3%

Q: And the viability, T/C [33]?
A: 30.2%

Q: What about the viability, T/C [34] of the same compound?
A: 33.1%

Q: And the viability, T/C [35]?
A: 32.2%

Q: What about the viability, T/C [36] of the same compound?
A: 26.4%

Q: How did the IC50 (second compound 0.0316 µM) turn out when `COc1cccc2c1C(=O)c1c(O)c3c(c(O)c1C2=O)CC(O)(C(=O)CO)CC3OC1CC(N)C(O)C(C)O1` (centres undefined) + Cc1cnc(CNC(=O)c2c(=O)c3ccc(N4CCCN(C)CC4)nc3n3c2sc2ccccc23)cn1 was run?
A: < 31.6 nM

Q: And the IC50 (second compound 0.1 µM)?
A: < 31.6 nM

Q: And the IC50 (second compound 0.316 µM)?
A: < 31.6 nM

Q: And the IC50 (second compound 1 µM)?
A: < 31.6 nM

Q: And the IC50 (second compound 3.16 µM)?
A: < 31.6 nM

Q: And the IC50 (second compound 10 µM)?
A: < 31.6 nM

Q: What about the viability, T/C [1] of the same compound?
A: 47.7%

Q: What about the viability, T/C [2] of the same compound?
A: 44.6%

Q: And the viability, T/C [3]?
A: 34.8%

Q: And the viability, T/C [4]?
A: 19.2%

Q: What about the viability, T/C [5] of the same compound?
A: 1.21%

Q: And the viability, T/C [6]?
A: 1.57%

Q: And the viability, T/C [7]?
A: 47.7%

Q: And the viability, T/C [8]?
A: 43.1%

Q: What about the viability, T/C [9] of the same compound?
A: 33.9%

Q: And the viability, T/C [10]?
A: 19.1%

Q: What about the viability, T/C [11] of the same compound?
A: 0.53%

Q: What about the viability, T/C [12] of the same compound?
A: 1.49%

Q: What about the viability, T/C [13] of the same compound?
A: 44.1%

Q: And the viability, T/C [14]?
A: 39.7%

Q: And the viability, T/C [15]?
A: 30.2%

Q: And the viability, T/C [16]?
A: 14.3%

Q: What about the viability, T/C [17] of the same compound?
A: 0.1%

Q: What about the viability, T/C [18] of the same compound?
A: 1.32%

Q: What about the viability, T/C [19] of the same compound?
A: 41.4%

Q: What about the viability, T/C [20] of the same compound?
A: 35.2%

Q: And the viability, T/C [21]?
A: 30.6%

Q: And the viability, T/C [22]?
A: 16%

Q: And the viability, T/C [23]?
A: 0.1%

Q: What about the viability, T/C [24] of the same compound?
A: 0.65%

Q: And the viability, T/C [25]?
A: 33.8%

Q: And the viability, T/C [26]?
A: 32.2%

Q: And the viability, T/C [27]?
A: 25.4%

Q: And the viability, T/C [28]?
A: 11.2%

Q: What about the viability, T/C [29] of the same compound?
A: 0.14%

Q: And the viability, T/C [30]?
A: 0.46%

Q: And the viability, T/C [31]?
A: 31%

Q: And the viability, T/C [32]?
A: 28.8%

Q: And the viability, T/C [33]?
A: 24.5%

Q: And the viability, T/C [34]?
A: 4.52%

Q: What about the viability, T/C [35] of the same compound?
A: 0.19%

Q: What about the viability, T/C [36] of the same compound?
A: 0.43%
